Measured values reported in patent US8022043B2, “Ceramide derivatives as modulators of immunity and autoimmunity” (Albert Einstein College of Medicine of Yeshiva University, priority 2004, dated 2011).

What was measured:
[1] = test system: C57BL/6 mice; assay: Serum IL-4 and IFNγ after a single i.p. injection; type: in vivo
Protocol: Serum levels of L-4 and IFNγ after a single injection of DB01-1, DB03-4, or DB03-5 are shown. C57BL/6 mice (11-13 weeks old) were given a single i.p. injection of 4.8 nanomoles of the compounds or phosphate buffered saline (PBS)/vehicle control. Serum cytokine levels were measured 2 and 20 hours later by capture ELISA. Bars show means of three mice, with standard deviation. Note that DB01-1 has nearly identical structure to KRN7000 (C24 fatty acid as compared to C26) and has activity that is indistinguishable from KRN7000 in multiple bioassays. We use DB01-1 as a “KRN7000 mimic” because it has been synthesized by our group and is readily available for our studies, and KRN7000 was unavailable due to license restrictions.
A most intriguing property of KRN7000 analogues is that in some cases they may elicit immune responses that are qualitatively different from those that occur following stimulation with the parent compound. […] This selective activation of IL-4 production by NK T cells was proposed to be the basis for the enhanced therapeutic effects of OCH in the EAE model of central nervous system autoimmune disease. We have observed a similar in vivo effect on the nature of the NK T cell response using several of our ceramide-like glycolipids. […] These responses are similar to those seen for DB01-1, an analogue that is structurally almost identical to KRN7000 (C24 fatty acid instead of C26, otherwise identical) and indistinguishable in terms of its activity in our hands. […] This selective IL-4 induction is virtually identical to that reported for the OCH analogue, and thus illustrates the potential for amino substituted analogues of KRN7000 to induce qualitatively different immunomodulatory effects in vivo. The results reported in FIG. 9 were obtained by measuring serum levels of IL-4 and IFNγ after administering a single injection of […], DB03-4, or DB03-5 to C57BL/6 mice. C57BL/6 mice (11-13 weeks old) were given a single i.p. injection of 4.8 nanomoles of the ceramide-like glycolipids or PBS/vehicle control. Serum cytokine levels were measured 2 and 20 hours later by capture ELISA. Bars show means of three mice, with standard deviation.
For experiments involving in vivo treatment of mice with the ceramide-like glycolipids, the ceramide-like glycolipids were administered by i.p. or i.v. injection in 0.2 ml PBS+0.025% Tween-20, or in vehicle alone. A typical dose is about 4-5 nmoles per animal per injection. Representative references for administering an α-galactosyl ceramide to mice by i.p., i.v. or p.o. routes are S. Sharif et al., Activation of natural killer T cells by alpha-galactosylceramide treatment prevents the onset and recurrence of autoimmune Type 1 diabetes, Nat. Med., Sep. 7, 2001, (9):1057-62 and K. Miyamoto et al., A synthetic glycolipid prevents autoimmune encephalomyelitis by inducing TH2 bias of natural killer T cells, Nature. Oct. 4, 2001, 413(6855):5314.

[2] = test system: iNKT cells; assay: In vitro cytokine modulation, murine cell assay system; type: cell-based
[3] = test system: human NKT cell clones; assay: Human in vitro NKT cell assay system; type: cell-based; conditions: proliferative responses and cytokine secretion
Source text: For example, DB03-4 and DB03-5 are active in stimulation of human NKT cell clones in vitro, and elicits proliferative responses and cytokine secretion when evaluated using culture systems previously established in the literature (See, e.g., Spada F M, Sugita M, Watts G F M, Koezuka Y, and Porcelli S A. Low expression but potent antigen presenting function of CD1d on monocyte lineage cells, Eur. J. Immunol., 30:3468-3477 (2000), and Spada F M, Koezuka Y, Porcelli S A, CD1d-restricted recognition of synthetic glycolipid antigens by human NK T cells. J Exp Med; 188:1529-1534 (1998), see also, Lee P T et al., J Clin Invest., 2002 September; 110(6):793-800. […] Acad. Sci. (USA), 102:3383-8 (2005)).

[4] = test system: T cell antigen receptors of human NKT cells; assay: Glycolipid human CD1d tetramer binding; conditions: normal blood specimens
[5] = test system: NK T cells; assay: NK T cell activation screens (Example, FIG. 5 and Table 1); type: cell-based; conditions: see Example
Source text: Using these methods, we produced more than 60 novel amino substituted analogues of KRN7000. These were screened in a functional assay that assessed the ability of the compounds to activate NK T cell hybridomas in the presence of various types of cells expressing CD1d, or in the presence of recombinant CD1d proteins bound to the tissue culture plate surface (FIG. 5).

CCCCC/C=C\C/C=C\CCCCCCCCCC(=O)N[C@@H](COC1OC(CO)C(O)C(O)C1O)[C@H](O)[C@H](O)CCCCCCCCCCCCCC (stereo partly drawn) [DB03-4]
serum IFNγ response ([1]; 20 hours after single i.p. injection of 4.8 nanomoles): not seen | serum IL-4 response ([1]; two hours after single i.p. injection of 4.8 nanomoles): strong IL-4 response | cytokine bias [2]: bias towards inducing Type 2 cytokines | IL-4 induction ([2]; in vitro): strong inducers of IL-4 | IFNγ induction ([2]; in vitro, DB03-3: in some murine strains): blunted IFNγ | in vitro activity at modulating cytokines ([2]; murine cell assay system): show in vitro activity | stimulation of human NKT cell clones [3]: active | binding of glycolipid human CD1d tetramers to human NKT cells [4]: bind strongly | effectiveness of compound [5]: Particularly effective
